Measurements reported in patent US10021901B2, “Antimicrobial mixture of aldehydes, organic acids and fatty acid esters” (ANITOX CORPORATION, priority 2011, dated 2018).
In brackets after ≈: the same amount, converted by molar mass. Where two headings read alike, the source gives them in different places.

What was measured:
[1] = test system: Salmonella typhimurium (ATTC:14028); test: Organic acid esters against Salmonella typhimurium in test tubes (Example 1); format: cell-based; details: for killing at 0.01 % / killing at 0.05 %: Salmonella enterica, TYPHIMURIUM, read-out: Reduction (% Reduction) of Salmonella typhimurium in vitro
Procedure: Methyl and ethyl esters of organic acids were added to test tubes at concentrations of 0.01% and 0.05%. Tubes were vortexed for 10 seconds to uniformly mix the solution. A suspension of Salmonella typhimurium (ATTC:14028) was added to each test tube to achieve a final concentration of 10^4 cfu/ml. The solutions were vortexed, incubated at room temperature for 24 hours and plated on XLT-4 agar. Plates were incubated for 48 hours at 37° C. before enumerating colonies.

[2] = test system: M. gypseum; details: cited from earlier work
[3] = test system: yeast (10^5 CFU/bottle) in beverages; details: cited from earlier work
[4] = test system: E. coli; details: vapour; cited from earlier work
[5] = test system: A. flavus, P. notatum, A. alternate, F. oxysporum, Cladosporium spp., B. subtilis and A. tumerfaciens; details: cited from earlier work
[6] = test system: Helicobacter pylori and S. cholerasuis; details: Kubo 1999; Kubo and Fujita 2001; cited from earlier work
[7] = test system: Penicillium expansum; details: blue mold; cited from earlier work
[8] = test system: P. syringae pathovars; details: vapour; cited from earlier work
[9] = test system: Phoma mycelium; details: cited from earlier work
[10] = test system: B. cereus, S. typhimurium, V. parahaemolyticus, L. monocytogenes, S. aureus and E. coli O157:H7; details: cited from earlier work
[11] = test system: apricots, peaches and nectarines; details: cited from earlier work
[12] = test system: Staphylococcus aureus, E. coli and Salmonella typhimurium; details: cited from earlier work
[13] = Ethyl Ester, 0.01% Dilution, 24 hours room temperature, compared to control
[14] = Ethyl Ester, 0.05% Dilution, 24 hours room temperature, compared to control
[15] = Methyl Ester, 0.01% Dilution, 24 hours room temperature, compared to control
[16] = Methyl Ester, 0.05% Dilution, 24 hours room temperature, compared to control

In the case of CCCCCCCCCCCCCC(=O)OCC, the “Reduction (% Reduction) of Salmonella typhimurium in vitro” value (from here on “Reduction (% Reduction)”) [1, 13] is reported as 12% and the “Reduction (% Reduction)” value [1, 14] is reported as 8%.
With CCCCCCCCCCCCCC(=O)OC the “Reduction (% Reduction)” value [1, 15] was 43% and the “Reduction (% Reduction)” value [1, 16] was 49%.
Work on CCOC(C)=O [Acetic acid Ethyl Ester] yielded a killing at 0.01 % [1, 13] of 0% and a killing at 0.05 % [1, 14] of 0%.
COC(C)=O [Acetic acid Methyl Ester] showed a killing at 0.01 % [1, 15] of 0% and a killing at 0.05 % [1, 16] of 29%.
CCOC(=O)c1ccccc1 [Benzoic acid Ethyl Ester, Ethyl benzoate] gave a killing at 0.01 % ([1]; 24 h) of 100% and a killing at 0.05 % ([1]; 24 h) of 100%.
Compound COC(=O)c1ccccc1 [Benzoic acid Methyl Ester, Methyl benzoate] has a killing at 0.01 % ([1]; 24 h) of 34% and a killing at 0.05 % ([1]; 24 h) of 100%.
In the case of CCCC(=O)OCC [Butyric acid Ethyl Ester, Ethyl butyrate], the killing at 0.01 % [1, 13] is reported as 28% and the killing at 0.05 % [1, 14] is reported as 100%.
CCCC(=O)OC [Butyric acid Methyl Ester] gave a killing at 0.01 % ([1]; 24 h) of 0% and a killing at 0.05 % ([1]; 24 h) of 28%.
In the case of CCCCCCCCCC(=O)OCC [Capric (decanoic) acid Ethyl Ester], the “Reduction (% Reduction)” value [1, 13] is reported as 0% and the “Reduction (% Reduction)” value [1, 14] is reported as 0%.
With CCCCCCCCCC(=O)OC [Capric (decanoic) acid Methyl Ester] the “Reduction (% Reduction)” value [1, 15] was 8% and the “Reduction (% Reduction)” value [1, 16] was 0%.
Work on CCCCCC(=O)OCC [Caproic (hexanoic) acid Ethyl Ester, Ethyl hexanoate] yielded a killing at 0.01 % [1, 13] of 100% and a killing at 0.05 % [1, 14] of 100%.
For CCCCCC(=O)OC [Caproic (hexanoic) acid Methyl Ester, Methyl hexanoate], the killing at 0.01 % [1, 15] was 99% and the killing at 0.05 % [1, 16] was 100%.
With CCCCCCCC(=O)OCC [Caprylic (octanoic) acid Ethyl Ester] the “Reduction (% Reduction)” value [1, 13] was 66% and the “Reduction (% Reduction)” value [1, 14] was 65%.
CCCCCCCC(=O)OC [Caprylic (octanoic) acid Methyl Ester, Methyl octanoate] gave a killing at 0.01 % [1, 15] of 94% and a killing at 0.05 % [1, 16] of 94%.
COC=O [Formic acid Methyl Ester] showed a killing at 0.01 % [1, 15] of 0% and a killing at 0.05 % [1, 16] of 5%.
With CC(=O)OCCC(C)C [Isoamyl acetate] the “Effectiveness against Salmonella in words” value ([1]; 0.01% and 0.05%) was “bactericidal activity”, the killing at 0.01 % ([1]; isoamyl acetate itself, 0.01% Dilution, 24 hours) was 44% and the killing at 0.05 % ([1]; isoamyl acetate itself, 0.05% Dilution, 24 hours) was 100%.
In the case of COC(=O)C(C)C [Isobutyric acid Methyl Ester], the killing at 0.01 % [1, 15] is reported as 3% and the killing at 0.05 % [1, 16] is reported as 41%.
For CCOC(=O)CC(C)C [Isovaleric acid Ethyl Ester], the killing at 0.01 % [1, 13] was 61% and the killing at 0.05 % [1, 14] was 100%.
For CCCCCCCCCCCC(=O)OCC [Lauric (dodecanoic) acid Ethyl Ester], the “Reduction (% Reduction)” value [1, 13] was 0% and the “Reduction (% Reduction)” value [1, 14] was 0%.
In the case of CCCCCCCCCCCC(=O)OC [Lauric (dodecanoic) acid Methyl Ester, Methyl laurate], the killing at 0.01 % [1, 15] is reported as 1% and the killing at 0.05 % [1, 16] is reported as 0%.
CCOC(=O)CCC(C)=O [Levulinic acid Ethyl Ester] showed a killing at 0.01 % [1, 13] of 0% and a killing at 0.05 % [1, 14] of 8%.
For COC(=O)CCC(C)=O [Levulinic acid Methyl Ester], the killing at 0.01 % [1, 15] was 0% and the killing at 0.05 % [1, 16] was 12%.
In the case of CCCCC/C=C\C/C=C\CCCCCCCC(=O)OCC [Linoleic acid Ethyl Ester], the killing at 0.01 % [1, 13] is reported as 0% and the killing at 0.05 % [1, 14] is reported as 0%.
For CCCCC/C=C\C/C=C\CCCCCCCC(=O)OC [Linoleic acid Methyl Ester, methyl linoleate], the killing at 0.01 % [1, 15] was 14% and the killing at 0.05 % [1, 16] was 0%.
Work on CCOC(=O)CC(=O)O [Malonic acid Ethyl Ester] yielded a killing at 0.01 % [1, 13] of 36% and a killing at 0.05 % [1, 14] of 57%.
Compound COC(=O)CC(=O)O [Malonic acid Methyl Ester] has a killing at 0.01 % [1, 15] of 13% and a killing at 0.05 % [1, 16] of 9%.
In the case of CCOC(=O)CC [Propionic acid Ethyl Ester], the killing at 0.01 % [1, 13] is reported as 0% and the killing at 0.05 % [1, 14] is reported as 40%.
CCC(=O)OC [Propionic acid Methyl Ester] gave a killing at 0.01 % ([1]; 24 h) of 9% and a killing at 0.05 % ([1]; 24 h) of 19%.
CCCCC(=O)OCC [Valeric (pentanoic) acid Ethyl Ester, Ethyl pentanoate] gave a killing at 0.01 % ([1]; 24 h) of 93% and a killing at 0.05 % ([1]; 24 h) of 100%.
Compound CCCCC(=O)OC [Valeric (pentanoic) acid Methyl Ester, Methyl pentanoate] has a killing at 0.01 % ([1]; 24 h) of 10% and a killing at 0.05 % ([1]; 24 h) of 100%.
In the case of CCCCCCCCCC(=O)O [capric acid, reference compound], the “minimum inhibitory concentration (MIC)” value ([2]; liquid media) is given as 75 µg/mL (≈ 435 µM) and the “minimum inhibitory concentration (MIC)” value ([2]; solid media) is given as 20 µg/mL (≈ 116 µM).
In the case of CC(C)=CCCC(C)=CC=O [citral, reference compound], the “equivalent concentration for control of yeast” value ([3]; equivalent to 25 ppm trans-2-hexenal and thermal treatment) is given as 100-120 ppm.
For CCCCCCCCC(=O)O [nonanoic acid], the “minimum inhibitory concentration (MIC)” value ([2]; liquid media) is given as 50 µg/mL (≈ 316 µM) and the “minimum inhibitory concentration (MIC)” value ([2]; solid media) is given as 40 µg/mL (≈ 253 µM).
In the case of CCC/C=C/C=O [trans-2-hexenal], the “concentration that completely inhibited proliferation” value [4] is listed as 930 micrograms/L of air, the “concentration that completely inhibited growth” value [5] is listed as 8 ng/l air and the minimum biocidal activity [6] is listed as 800 µg/mL. For the same compound, the minimum inhibitory activity [6] was 400 µg/mL, the “concentration effective on controlling Penicillium expansum” value [7] was 12.5 μl/l and the “concentration necessary to control microorganisms” value ([3]; beverages not thermally treated) was 35 ppm. For the same compound, the “concentration for control of yeast” value ([3]; with thermal treatment (56° C. for 20 min), equivalent to citral) was 25 ppm, the “concentration that completely inhibited proliferation” value [8] was 570 μg/L of air and the “concentration effective on inhibiting growth” value [9] was 250 µg/mL. The effective concentration [10] was 247 mg/L, the phytotoxicity ([11]; apricots) was “not phytotoxic” and the phytotoxic concentration ([11]; peaches and nectarines) was 40 μl/l.
In the case of CC/C=C/CC=O [trans-3-hexenal], the “level effective in controlling bacteria” value [12] is given as 3 to 30 µg/mL.
